Each structure is given as a SMILES string.

From the SangsterLogP compilation come the findings set out here.

The data set is described as follows: method code G-GLC, from Herzke, D.; Rotard, W. (1999). Physical-chemical properties of polyfluorinated dibenzodioxins and dibenzofurans. Organohalogen Compounds, 41, 171-174.

For `Fc1cc2c(cc1F)Oc1cc(F)c(F)cc1O2`, the logP (in general, the decadic logarithm of the partition coefficient of the neutral form, usually between octanol and water) amounted to 3.5.
Compound `Clc1ccc2c(c1)Oc1ccc(Cl)cc1O2` returned a lipophilicity (logP) of 5.7.
The figure for `Fc1ccc2oc3c(F)c(F)c(F)c(F)c3c2c1F` is 4.4; for `Fc1cc2c(cc1F)Oc1c(F)c(F)c(F)c(F)c1O2` it is 3.8.
In the case of `Fc1cc(F)c2c(c1F)Oc1c(F)c(F)cc(F)c1O2` it was 3.1; in that of `Fc1ccc2c(c1)Oc1c(F)c(F)c(F)c(F)c1O2`, 3.6; in that of `Fc1ccc2c(c1)Oc1ccc(F)cc1O2`, 3.3.
The figure for `Fc1cc2c(oc3ccccc32)c(F)c1F` is 3.4; for `Clc1c(Cl)c(Cl)c2c(c1Cl)Oc1c(Cl)c(Cl)c(Cl)c(Cl)c1O2` it is 8.2; for `Clc1ccc2oc3ccccc3c2c1Cl` it is 5.6.
Regarding `Fc1c(F)c(F)c2c(c1F)Oc1c(F)c(F)c(F)c(F)c1O2`, the logP turned out to be 3.
In the case of `Fc1cc2oc3c(F)c(F)c(F)c(F)c3c2cc1F` it was 4; in that of `Clc1cc2c(oc3ccccc32)c(Cl)c1Cl`, 6.4; in that of `Fc1cc2c(c(F)c1F)Oc1c(F)cc(F)c(F)c1O2`, 3.1.
